Results: ChEMBL document CHEMBL2028040, “Malaria Box”

What was measured:
Leishmania infantum = assay: MMV: Inhibition of Leishmania infantum (MHOM/MA/BE/67) in vitro.; type: functional, organism-based
[1] = test system: Trypanosoma brucei rhodesiense; assay: MMV: Inhibition of Trypanosoma brucei rhodesiense (STIB 900) (HAT in vitro).; type: functional, organism-based
[2] = test system: Trypanosoma brucei brucei; assay: MMV: Inhibition of Trypanosoma brucei brucei (Squib 427) (HAT in vitro).; type: functional, organism-based
[3] = MMV: Cytotoxicity against human fibroblasts (MRC-5) cells.; conditions: MRC-5 cells (human fibroblasts)
Plasmodium falciparum = assay: MMV: Inhibition of Plasmodium falciparum 3D7 at 5uM compound concentration.; type: functional
Trypanosoma cruzi = assay: MMV: Inhibition of Trypanosoma cruzi (Tulahuen C4 LacZ) (Chagas in vitro).; type: functional, organism-based

## CC(C)(C)C(=O)Nc1ccc(C(=O)Nc2cccc(-c3nc4ccccc4[nH]3)c2)cc1
Leishmania infantum
  IC50: > 32 µM
[1]
  IC50: 3.14 µM
[2]
  IC50: 16.4 µM
[3]
  IC50: 17.9 µM
Plasmodium falciparum
  inhibition at 5 µM: 91%
Trypanosoma cruzi
  IC50: 11.8 µM

## COc1ccc(-c2nonc2NC(=O)c2cccc(C)c2)cc1OC
Leishmania infantum
  IC50: > 32 µM
[1]
  IC50: > 32 µM
[2]
  IC50: > 32 µM
[3]
  IC50: > 32 µM
Plasmodium falciparum
  inhibition at 5 µM: 95%
Trypanosoma cruzi
  IC50: > 32 µM

## Cc1ccc(-c2nc3ccccc3o2)cc1NCc1cc(Cc2ccccc2)ccc1O
Leishmania infantum
  IC50: 16.2 µM
[1]
  IC50: > 32 µM
[2]
  IC50: > 32 µM
[3]
  IC50: > 32 µM
Plasmodium falciparum
  inhibition at 5 µM: 64%
Trypanosoma cruzi
  IC50: > 32 µM

## O=C1CC(O)(C(F)(F)C(F)(F)F)Oc2ccccc21 (stereo not drawn)
Leishmania infantum
  IC50: > 32 µM
[1]
  IC50: 30.3 µM
[2]
  IC50: > 32 µM
[3]
  IC50: 18.1 µM
Plasmodium falciparum
  inhibition at 5 µM: 95%
Trypanosoma cruzi
  IC50: 16.3 µM

## O=C(Nc1cccc(C(F)(F)F)c1)c1cc(Cl)ccc1O
Leishmania infantum
  IC50: 16.2 µM
[1]
  IC50: 0.7 µM
[2]
  IC50: 0.657 µM
[3]
  IC50: 0.241 µM
Plasmodium falciparum
  inhibition at 5 µM: 93%
Trypanosoma cruzi
  IC50: 0.343 µM

## CC(C)(C)c1ccc(C(=O)Nc2nc3ccccc3s2)cc1
Leishmania infantum
  IC50: > 32 µM
[1]
  IC50: > 32 µM
[2]
  IC50: > 32 µM
[3]
  IC50: > 32 µM
Plasmodium falciparum
  inhibition at 5 µM: 81%
Trypanosoma cruzi
  IC50: > 32 µM

## CCOc1cccc2sc(N(Cc3cccnc3)C(=O)C3CCCCC3)nc12
Leishmania infantum
  IC50: 19 µM
[1]
  IC50: 16 µM
[2]
  IC50: 27 µM
[3]
  IC50: > 32 µM
Plasmodium falciparum
  inhibition at 5 µM: 94%
Trypanosoma cruzi
  IC50: 0.165 µM

## COc1ccccc1CNC(=O)C1c2ccccc2C(=O)N(CC(C)C)C1c1cccs1 (stereo not drawn)
Leishmania infantum
  IC50: > 32 µM
[1]
  IC50: 19.7 µM
[2]
  IC50: > 32 µM
[3]
  IC50: > 32 µM
Plasmodium falciparum
  inhibition at 5 µM: 97%
Trypanosoma cruzi
  IC50: > 32 µM

## CCN(CC)c1cc(C)c2cc(NC(=O)c3cccc(OC)c3)ccc2n1
Leishmania infantum
  IC50: 16.2 µM
[1]
  IC50: 0.679 µM
[2]
  IC50: 14.3 µM
[3]
  IC50: 15.3 µM
Trypanosoma cruzi
  IC50: 13.7 µM

## COc1ccc(C(O)(CCC(C)C)C(CN2CCOCC2)c2ccc(Cl)cc2)cc1 (stereo not drawn)
Leishmania infantum
  IC50: 4.76 µM
[1]
  IC50: 4 µM
[2]
  IC50: 3.85 µM
[3]
  IC50: 10.8 µM
Plasmodium falciparum
  inhibition at 5 µM: 97%
Trypanosoma cruzi
  IC50: 4.26 µM

## Cc1ccc(NC(=O)Nc2cccc(Cl)c2)cc1F
Leishmania infantum
  IC50: > 32 µM
[1]
  IC50: 4.03 µM
[2]
  IC50: 5.81 µM
[3]
  IC50: > 32 µM
Plasmodium falciparum
  inhibition at 5 µM: 52%
Trypanosoma cruzi
  IC50: 6.29 µM

## Oc1c(CN2CCN(c3ccccc3F)CC2)cc(Br)c2cccnc12
Leishmania infantum
  IC50: > 32 µM
[1]
  IC50: 1.05 µM
[2]
  IC50: 1.15 µM
[3]
  IC50: 5.58 µM
Plasmodium falciparum
  inhibition at 5 µM: 91%
Trypanosoma cruzi
  IC50: 0.963 µM

## Oc1c2c(nc3cc(-c4ccccc4)nn13)CCCC2
Leishmania infantum
  IC50: > 32 µM
[1]
  IC50: 8 µM
[2]
  IC50: 12.8 µM
[3]
  IC50: > 32 µM
Plasmodium falciparum
  inhibition at 5 µM: 77%
Trypanosoma cruzi
  IC50: > 32 µM

## COc1ccc(C)c2sc(N(Cc3cccnc3)C(=O)c3ccc(C#N)cc3)nc12
Leishmania infantum
  IC50: > 32 µM
[1]
  IC50: 16 µM
[2]
  IC50: 14.6 µM
[3]
  IC50: > 32 µM
Plasmodium falciparum
  inhibition at 5 µM: 91%
Trypanosoma cruzi
  IC50: 2.32 µM

## CCCCCCC(O)(c1ccc(F)cc1)C(CN1CCOCC1)c1ccccc1 (stereo not drawn)
Leishmania infantum
  IC50: 4.32 µM
[1]
  IC50: 12.5 µM
[2]
  IC50: 16.2 µM
[3]
  IC50: > 32 µM
Plasmodium falciparum
  inhibition at 5 µM: 93%
Trypanosoma cruzi
  IC50: 4.78 µM

## Cc1ccc(C)c(-c2csc(Nc3ccc(C)c(C)c3)n2)c1
Leishmania infantum
  IC50: > 32 µM
[1]
  IC50: 22.8 µM
[2]
  IC50: > 32 µM
[3]
  IC50: > 32 µM
Plasmodium falciparum
  inhibition at 5 µM: 94%
Trypanosoma cruzi
  IC50: 19.3 µM

## CCOc1ccc(CCNC(=O)c2cccs2)cc1OCC
Leishmania infantum
  IC50: > 32 µM
[1]
  IC50: > 32 µM
[2]
  IC50: > 32 µM
[3]
  IC50: > 32 µM
Plasmodium falciparum
  inhibition at 5 µM: 95%
Trypanosoma cruzi
  IC50: > 32 µM

## O=c1c2c([nH]c3ccccc13)CCCC2
Leishmania infantum
  IC50: > 32 µM
[1]
  IC50: > 32 µM
[2]
  IC50: > 32 µM
[3]
  IC50: > 32 µM
Plasmodium falciparum
  inhibition at 5 µM: 82%
Trypanosoma cruzi
  IC50: > 32 µM

## CN(C)c1ccc(N=Cc2ccc(N3CCOCC3)cc2)cc1
Leishmania infantum
  IC50: 10.1 µM
[1]
  IC50: 3.51 µM
[2]
  IC50: 13.3 µM
[3]
  IC50: > 32 µM
Plasmodium falciparum
  inhibition at 5 µM: 96%
Trypanosoma cruzi
  IC50: 17 µM

## CCCCOc1ccc(C(=O)Nc2cc(C)on2)cc1
Leishmania infantum
  IC50: > 32 µM
[1]
  IC50: > 32 µM
[2]
  IC50: > 32 µM
[3]
  IC50: > 32 µM
Plasmodium falciparum
  inhibition at 5 µM: 73%
Trypanosoma cruzi
  IC50: > 32 µM

## CCOC(=O)c1cnc2ccc(OC)cc2c1NCc1ccccc1
Leishmania infantum
  IC50: 10.1 µM
[1]
  IC50: 4.95 µM
[2]
  IC50: 14.9 µM
[3]
  IC50: > 32 µM
Plasmodium falciparum
  inhibition at 5 µM: 87%
Trypanosoma cruzi
  IC50: 13 µM

## CCN1CCN(c2c(C(=O)c3ccccc3)cnc3cc(OC)c(OC)cc23)CC1
Leishmania infantum
  IC50: > 32 µM
[1]
  IC50: 17.9 µM
[2]
  IC50: > 32 µM
[3]
  IC50: > 32 µM
Plasmodium falciparum
  inhibition at 5 µM: 59%
Trypanosoma cruzi
  IC50: > 32 µM

## CCOC(=O)c1c[nH]c2c(CC)cccc2c1=O
Leishmania infantum
  IC50: > 32 µM
[1]
  IC50: > 32 µM
[2]
  IC50: > 32 µM
[3]
  IC50: > 32 µM
Plasmodium falciparum
  inhibition at 5 µM: 87%
Trypanosoma cruzi
  IC50: > 32 µM

## CCCCN(CCCC)S(=O)(=O)c1ccc(NC(=O)c2ccco2)cc1
Leishmania infantum
  IC50: > 32 µM
[1]
  IC50: 16.3 µM
[2]
  IC50: > 32 µM
[3]
  IC50: > 32 µM
Plasmodium falciparum
  inhibition at 5 µM: 78%
Trypanosoma cruzi
  IC50: > 32 µM
